Measured values: US10350206B2, “Benzyl substituted indazoles as BUB1 inhibitors” (Bayer Pharma Aktiengesellschaft, priority 2014, dated 2019)
Read-outs that look alike come from different tables or passages of the source.

Legend:
[1] = biological target: T1, catalytic domain of human Bub1 (amino acids 704-1085) (Homo sapiens, UniProt O43683); assay: Bub1 kinase assay (TR-FRET); type: biochemical; conditions: 10 μM ATP, 60 min reaction, pH 7.5; read-out: Biological Assay 1: Bub1 kinase assay median IC50
T1 construct: catalytic domain of human Bub1 (amino acids 704-1085); His6 (N); made in house; host or cells: Hi5 insect cells
Protocol: To this end, 100-fold concentrated compound solutions (in DMSO) were previously prepared by serial dilution (1:3.4) of 2 mM stocks in a clear low volume 384-well source microtiter plate (Greiner Bio-One, Frickenhausen, Germany), from which 50 nL of compounds were transferred into a black low volume test microtiter plate from the same supplier. […] The resulting mixture (5 μL final volume) was incubated at 22° during 60 min., and the reaction was stopped by the addition of 5 μL of an aqueous EDTA-solution (50 mM EDTA, in 100 mM HEPES pH 7.5 and 0.2% (w/v) bovine serum albumin) which also contained the TR-FRET detection reagents (0.2 μM streptavidin-XL665 [Cisbio Bioassays, Codolet, France] and 1 nM anti-phosho-Serine antibody [Merck Millipore, cat. #35-001] and 0.4 nM LANCE EU-W1024 labeled anti-mouse IgG antibody [Perkin-Elmer, product no. AD0077, alternatively a Terbium-cryptate-labeled anti-mouse IgG antibody from Cisbio Bioassays can be used]). The stopped reaction mixture was further incubated 1 h at 22° C. in order to allow the formation of complexes between peptides and detection reagents. Subsequently, the amount of product was evaluated by measurement of the resonance energy transfer from the Eu-chelate-antibody complex recognizing the Phosphoserine residue to the streptavidin-XL665 bound to the biotin moiety of the peptide. […] IC50 values were calculated by fitting the normalized inhibition data to a 4-parameter logistic equation (Minimum, Maximum, IC50, Hill; Y=Max+(Min−Max)/(1+(X/IC50)Hill)).

[2] = test system: HeLa human cervical tumor cells; assay: Proliferation assay (HeLa cell line); type: cell-based; conditions: 96 h, 4 days incubation, crystal violet, read-out: Biological Assay 2: Proliferation assay (HeLa cell line) median IC50
Protocol: Human tumour cells were originally obtained from the American Type Culture Collection (ATCC), the Deutsche Sammlung von Mikroorganismen und Zellkulturen (DSMZ, German Collection of Microorganisms and Cell Cultures), or Epo GmbH Berlin. Cultivated HeLa human cervical tumor cells (DSMZ ACC-57) were plated at a density of 3000 cells/well in a 96-well multititer plate in 200 μL of growth medium supplemented 10% fetal calf serum. After 24 hours, the cells of one plate (zero-point plate) were stained with crystal violet (see below), while the medium of the other plates was supplemented with the test substances in various concentrations (0 μM, as well as in the range of 0.001-10 μM; the final concentration of the solvent dimethyl sulfoxide was adjusted to 0.1%) using a Hewlett-Packard HP D300 Digital Dispenser. The cells were incubated for 4 days in the presence of test substances. […] After three washing cycles of the fixed cells with water, the plates were dried at room temperature. The cells were stained by adding 100 μL/measuring point of a 0.1% crystal violet solution (pH 3.0). After three washing cycles of the stained cells with water, the plates were dried at room temperature. The dye was dissolved by adding 100 μL/measuring point of a 10% acetic acid solution. […] The change of cell number, in percent, was calculated by normalization of the measured values to the absorption values of the zero-point plate (=0%) and the absorption of the untreated (0 μm) cells (=100%). The IC50 values were determined by means of a 4 parameter fit.

[3] = test system: HeLa human cervical tumor cells; assay: Proliferation Assay (HeLa+Paclitaxel); type: cell-based; conditions: 3 nM paclitaxel, test substance 92 hours; read-out: Biological Assay 3: Proliferation Assay (HeLa + Paclitaxel) IC50
Protocol: Proliferation Assay (HeLa+Paclitaxel):
Cultivated HeLa human cervical tumor cells (DSMZ ACC-57) were plated at a density of 3000 cells/well in a 96-well multititer plate in 200 μL of growth medium supplemented 10% fetal calf serum. After 24 hours, the cells of one plate (zero-point plate) were stained with crystal violet (see below). The medium of the other plates was supplemented with 3 nM of paclitaxel (Sigma-Aldrich) and the cells were incubated at 37° C. After 4 hours the test substances were added in various concentrations (0 μM, as well as in the range of 0.001-10 μM; the final concentration of the solvent dimethyl sulfoxide was adjusted to 0.1%) using a Hewlett-Packard HP D300 Digital Dispenser. The cells were incubated for another 92 hours at 37° C. in the presence of test substances. […] After three washing cycles of the fixed cells with water, the plates were dried at room temperature. The cells were stained by adding 100 μL/measuring point of a 0.1% crystal violet solution (pH 3.0). After three washing cycles of the stained cells with water, the plates were dried at room temperature. The dye was dissolved by adding 100 μL/measuring point of a 10% acetic acid solution. […] The change of cell number, in percent, was calculated by normalization of the measured values to the absorption values of the zero-point plate (=0%) and the 5 absorption of the untreated (0 μm) cells (=100%). The IC50 values were determined by means of a 4 parameter fit.

[4] = test system: Bub1 kinase (histone 2A phosphorylation); assay: H2A Formation-Assay (cell-based mechanistic assay, co-treatment with Nocodazole); conditions: 16 h, Nocodazole 1 μg/ml together with test compound for 16 h; read-out: Biological Assay 4.1: H2A Formation IC50
Protocol: Biological Assay 4.1: Formation-Assay
Cell-Based Mechanistic Assay: Changes of Phosphorylation Status of Histone 2A by Inhibition of Kinase Activity of Bub1
This assay determines the suppression of histone 2A phosphorylation by a Bub1 kinase inhibitor during co-treatment with Nocodazole. 25000 cells (cells were ordered from ATCC) were seeded in 96 well plate for 5 h at 37° C. Cells were treated with Nocodazole (1 μg/ml) and varying concentrations (between 3 nM and 10 μM) of test compounds for 16h. Cells were fixed (20 min, Fixing solution R&D), washed three times with PBS and blocked with Odyssey blocking buffer before incubating with the primary antibody against phosphorylated H2A (5 μg/ml ABIN482721) overnight at […]. After washing, secondary IRDye-labeled antibody mix with cell stains was added for 1h and washed again with PBS. Plates were scanned with LiCor Odyssey Infrared Imager CLx at 800 nm for P-H2A and at 700 nm for cell stains Draq5/Sapphire. The quotient of 800 nm and 700 nm for Nocodazole only treated cells was set as 100% and the quotient of 800 nm and 700 nm of untreated cells was set as 0%. […] The IC50 values were determined by means of a 4 parameter fit.
(§1) Histone H2A is an immediate intracellular substrate of Bub1 kinase. Determination of the phosphorylation status of Histone H2A provides a direct measure of the intracellular activity of Bub1 kinase.

[5] = test system: Bub1 kinase (pre-induced phospho-histone 2A); assay: H2A Abrogation-Assay (cell-based mechanistic assay, pre-treatment with Nocodazole); conditions: read-out: Biological Assay 4.2: H2A Abrogation IC50
Protocol: Biological Assay 4.2: Abrogation-Assay
Cell-Based Mechanistic Assay: Changes of Phosphorylation Status of Pre-Induced Phospho-Histone 2A by Inhibition of Kinase Activity of Bub1
This assay measures the inhibition of histone 2A phosphorylation, which was induced by pre-treatment of the cells with Nocodazole, by a Bub1 kinase inhibitor. 25000 cells (cells were ordered from ATCC) were seeded in 96 well plate for 5 h at 37° C. Cells were treated with Nocodazole (1 μg/ml). After 16h varying concentrations (between 3 nM and 10 μM) of test compounds were added and the cells were incubated for another 1h. Cells were fixed (20 min, Fixing solution R&D), washed three times with PBS and blocked with Odyssey blocking buffer before incubating with the primary antibody against phosphorylated H2A (5 μg/ml ABIN482721) overnight at 2-8° C. After washing, secondary IRDye-labeled antibody mix with cell stains was added for 1h and washed again with PBS. Plates were scanned with LiCor Odyssey Infrared Imager CLx at 800 nm for P-H2A and at 700 nm for cell stains Draq5/Sapphire. The quotient of 800 nm and 700 nm for Nocodazole only treated cells was set as 100% and the quotient of 800 nm and 700 nm of untreated cells was set as 0%. […] The IC50 values were determined by means of a 4 parameter fit.
as §1

[6] = Nocodazole 1 μg/ml 16 h, then test compound 1 h

T1 sequence (O43683 704-1085): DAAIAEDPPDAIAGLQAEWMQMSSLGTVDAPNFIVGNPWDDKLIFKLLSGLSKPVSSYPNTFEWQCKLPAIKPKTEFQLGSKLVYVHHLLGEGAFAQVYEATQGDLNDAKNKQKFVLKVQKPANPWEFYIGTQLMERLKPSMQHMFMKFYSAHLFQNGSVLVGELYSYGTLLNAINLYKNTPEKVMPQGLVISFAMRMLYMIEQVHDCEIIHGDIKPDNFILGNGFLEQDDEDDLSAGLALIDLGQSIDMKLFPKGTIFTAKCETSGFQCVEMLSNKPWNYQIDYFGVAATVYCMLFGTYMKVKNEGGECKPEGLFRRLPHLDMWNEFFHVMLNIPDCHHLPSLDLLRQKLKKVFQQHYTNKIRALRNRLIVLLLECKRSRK

IC50 [1] [nM] | IC50 [2] [nM] | IC50 [3] [nM] | IC50 [4] [nM] | IC50 [5, 6] [nM] | IC50 [5] [nM] | Compound
13 | 4100 | 240 | 94 | 10 |  | COc1cnc(-c2nn(Cc3c(F)cc(OCCO)cc3F)c3ccccc23)nc1Nc1ccncc1Cl [Example 2-1-1, 2-{4-[(3-{4-[(3-chloropyridin-4-yl)amino]-5-methoxypyrimidin-2-yl}-1 H-indazol-1-yl)methyl]-3,5-difluorophenoxy}ethanol]
8.3 | > 10000 | 100 | 8.2 | 150 |  | COc1cnc(-c2nn(Cc3c(F)cc(OCCO)cc3F)c3ccccc23)nc1Nc1ccnc(NC(C)=O)c1 [Example 2-1-4, N-{4-[(2-{1-[2,6-difluoro-4-(2-hydroxyethoxy)benzyl]-1H-indazol-3-yl}-5-methoxypyrimidin-4-yl)amino]pyridin-2-yl}acetamide]
10 | 3100 | 150 | 6.9 | 600 |  | COc1cnc(-c2nn(Cc3c(F)cc(OCCO)cc3F)c3ccccc23)nc1Nc1ccncc1C [Example 2-1-5, 2-{3,5-difluoro-4-[(3-{5-methoxy-4-[(3-methylpyridin-4-yl)amino]pyrimidin-2-yl}-1H-indazol-1-yl)methyl]phenoxy}ethanol]
23 | 9100 | 480 | 27 |  |  | COc1cnc(-c2nn(Cc3c(F)cc(OCCO)cc3F)c3ccccc23)nc1Nc1ccnc(C(F)F)c1 [Example 2-1-7, 2-(4-{[3-(4-{[2-(difluoromethyl)pyridin-4-yl]amino}-5-methoxypyrimidin-2-yl)-1H-indazol-1-yl]methyl}-3,5-difluorophenoxy)ethanol]
31 | > 10000 | 120 |  |  |  | COc1cnc(-c2nn(Cc3c(F)cc(OCCO)cc3F)c3ccccc23)nc1Nc1cc(C)ncc1C [Example 2-1-8, 2-{4-[(3-{4-[(2,5-dimethylpyridin-4-yl)amino]-5-methoxypyrimidin-2-yl}-1H-indazol-1-yl)methyl]-3,5-difluorophenoxy}ethanol]
13 |  |  |  |  |  | COc1cnc(-c2nn(Cc3c(F)cc(OCCO)cc3F)c3ccccc23)nc1Nc1ccncc1C1CC1 [Example 2-1-9, 2-{4-[(3-{4-[(3-cyclopropylpyridin-4-yl)amino]-5-methoxypyrimidin-2-yl}-1H-indazol-1-yl)methyl]-3,5-difluorophenoxy}ethanol]
95 | > 10000 | 140 |  |  |  | COc1cnc(C)cc1Nc1nc(-c2nn(Cc3c(F)cc(OCCO)cc3F)c3ccccc23)ncc1OC [Example 2-1-19, 2-{3,5-difluoro-4-[(3-{5-methoxy-4-[(5-methoxy-2-methylpyridin-4-yl)amino]pyrimidin-2-yl}-1H-indazol-1-yl)methyl]phenoxy}ethanol]
10 | 1000 | 55 |  | 9.8 |  | COc1cnccc1Nc1nc(-c2nn(Cc3c(F)cc(OCCCO)cc3F)c3ccccc23)ncc1OC [Example 2-3-2, 3-{3,5-difluoro-4-[(3-{5-methoxy-4-[(3-methoxypyridin-4-yl)amino]pyrimidin-2-yl}-1H-indazol-1-yl)methyl]phenoxy}propan-1-ol]
37 |  |  |  |  |  | COc1cnc(-c2nn(Cc3c(F)cc(OCCO)cc3F)c3ccccc23)nc1Nc1cc(C)nc(C)n1 [Example 2-4-1, 2-{4-[(3-{4-[(2,6-dimethylpyrimidin-4-yl)amino]-5-methoxypyrimidin-2-yl}-1H-indazol-1-yl)methyl]-3,5-difluorophenoxy}ethanol]
 | 3300 | 650 |  |  | 3600 | COc1cnc(-c2nn(Cc3c(F)cc(OCCOC(C)=O)cc3F)c3ccccc23)nc1Nc1ccncc1 [Example 6-3-1, 2-[3,5-difluoro-4-({3-[5-methoxy-4-(pyridin-4-ylamino)pyrimidin-2-yl]-1H-indazol-1-yl}methyl)phenoxy]ethyl acetate, reference compound]
21 |  |  |  |  |  | CCOc1cc(F)c(Cn2nc(-c3ncc(OCCOCCNC(=S)Nc4ccc(-c5c6ccc(=O)cc-6oc6cc(O)ccc56)c(C(=O)O)c4)c(Nc4ccncc4)n3)c3ccccc32)c(F)c1 [Example 6-5-1, 5-[({2-[2-({2-[1-(4-ethoxy-2,6-difluorobenzyl)-1H-indazol-3-yl]-4-(pyridin-4-ylamino)pyrimidin-5-yl}oxy)ethoxy]ethyl}carbamothioyl)amino]-2-(6-hydroxy-3-oxo-3H-xanthen-9-yl)benzoic acid, reference compound]
